Experiment: Phase-solubility diagram with β-CD
Experimental: The solutions were mechanically shaken at 298 K in a thermostatic chamber, and the supernatant was sampled and filtered after passage for appropriate periods. The concentration of the drug in the supernatant was determined using HPLC.
The phase-solubility diagram consists of the equilibrium concentration of the guest drug as the ordinate and the total concentration of the host CD as the abscissa.[45] If a straight line and parabolic curve can be approximated on the phase-solubility diagram, then, the curves are classified as AL- and AP-types in the Higuchi and Connors catalogs, respectively.[45],[46]
Multiple regression analysis of the measured data set to the total concentration of the host ([CD]) and its squares ([CD]^2) using eq 3 can be used to obtain the stability constants for a combination of the equimolar complex K1:1 and double-host associating complex K1:2.[45],[46] [drawing 3] 3 This is the sum of the dissociated (free) and associated (complexed) drug concentrations. Although the Benesi–Hildebrand equation with the square of the host concentration has been used for parabolic correlations, its validity remains unclear.
This curve is classified as the AN-type on the Higuchi and Connors catalog.[45]−[48] The curve is described by eq 4′ according to the Langmuir adsorption isotherm model.[47]−[51] To process with the linear regression analysis of ordinate ([CD]/γ) referred to abscissa ([CD]), the Hanes–Woolf expression in eq 4′ may be used [drawing 4] 4 [drawing 5] 4′ where n indicates the asymptotic concentration of the drug associated with CD (saturation, maximal γ) and K is equivalent to the drug/CD complex stability constant. […] The stoichiometry of a complex of drugs with CD is difficult to determine; the prevailing opinion is that more than one guest molecule incorporates a host molecule and that hydration or ionization of the guest regulates the solubility of the complex.[46]
Szejtili[46] stated that, in rare cases, the ascending region at lower host concentrations is followed by a plateau region, similar to that of the AN-type saturation curve. Simultaneously, it terminates at any host concentration threshold. It is named the BS-type in the Higuchi and Connors catalog,[45]−[48] and for concentrations higher than the threshold, the guest concentration decreases along a hyperbola, probably according to the solubility product KSP.[49] To analyze this type of pattern, a hypothesis that is yet to be discussed is required.[52] […] At the threshold concentration of CD, the scale of the aggregated dispersoids transcends an upper limit, and the aggregation induces subsequent sedimentation.[52] Thus, the solubility product may be considered a property of poorly soluble aggregated dispersoids containing a tolerable amount of the drug and an excess amount of CD.

## p-tert-butyl-p-methoxydibenzoylmethane [AVB]
25 mM Pi/NaOH buffer pH 6.8, 298 K, Figure 2, in M-1 (unit assumed)
  stability constant K1:1 with β-CD: 1023
Equimolar complex, pH 6.8
  stability constant K1:1 with β-CD: 1023 L/mol
